pIC50: −log10 of the molar value.
Experiments:
[1] = biological target: T1, FXIIIa (Homo sapiens, UniProt P00488); assay: Primary FXIIIa screening assay (cross-linking of biotinylated fibrinogen and immobilized fibronectin); assay type: biochemical
T1 sequence (P00488 39-732 limits assumed): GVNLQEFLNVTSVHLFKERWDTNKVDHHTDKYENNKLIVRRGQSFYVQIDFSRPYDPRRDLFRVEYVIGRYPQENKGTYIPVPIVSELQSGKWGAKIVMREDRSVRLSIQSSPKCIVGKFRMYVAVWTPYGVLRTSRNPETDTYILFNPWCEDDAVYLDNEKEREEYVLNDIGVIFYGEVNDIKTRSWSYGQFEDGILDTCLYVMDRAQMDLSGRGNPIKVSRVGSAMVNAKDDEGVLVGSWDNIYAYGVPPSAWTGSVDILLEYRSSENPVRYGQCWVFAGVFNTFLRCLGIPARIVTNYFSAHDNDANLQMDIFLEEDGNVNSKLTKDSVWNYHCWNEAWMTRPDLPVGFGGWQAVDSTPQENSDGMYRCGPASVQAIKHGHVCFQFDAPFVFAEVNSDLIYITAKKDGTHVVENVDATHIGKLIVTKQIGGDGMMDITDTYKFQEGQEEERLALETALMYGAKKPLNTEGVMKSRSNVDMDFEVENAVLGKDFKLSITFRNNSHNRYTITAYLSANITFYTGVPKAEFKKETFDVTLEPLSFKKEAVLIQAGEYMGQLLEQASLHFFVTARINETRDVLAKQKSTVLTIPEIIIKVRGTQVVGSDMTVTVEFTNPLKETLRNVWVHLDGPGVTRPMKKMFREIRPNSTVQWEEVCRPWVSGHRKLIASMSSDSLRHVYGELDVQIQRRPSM
Description: The primary FXIIIa screening assay used a 96-well high throughput assay format. This assay assesses test sample inhibition of FXIIIa catalyzed cross-linking of biotinylated fibrinogen and immobilized fibronectin.
Test samples (possibly containing FXIIIa inhibitors) were added to 96-well plates coated with fibronectin, followed by the addition of FXIIIa, as described in the primary FXIIIa screening assay, below. Biotinylated fibrinogen was added to the wells, and streptavidin-alkaline phosphatase was used to detect biotinylated fibrinogen that had been cross-linked to fibronectin.
Purified fibronectin was diluted to 1 μg/ml in 0.1M Na2 CO3, pH 9.7, and added to control and test assay wells of 96-well plates at 100 μl/well. All wells were incubated overnight at 4° C.
After incubation, the plate wells were washed twice with 200 μl/well of wash buffer per wash to remove all fibronectin not bound to the wells. The wash buffer contained 0.135M NaCl, 2.7 mM KCl, 25 mM Tris at about pH 7.4, and 0.1% Tween 20® (Sigma Chemical Co., St. Louis, Mo.; polyoxyethylenesorbitan monolaurate). The plate wells were then blocked with 200 μl/well blocking buffer and incubated for 1-2 h at 37° C. The blocking buffer contained 0.135M NaCl, 2.7 mM KCl, 25 mM Tris at about pH 7.4, 0.1% Tween 20®, and 0.5% BSA (bovine serum albumin, Sigma fraction V; Sigma). After incubation, the plates wells were again washed with 200 μl/well of wash buffer to remove excess blocking buffer.
Briefly, fibrinogen was dialyzed against 0.1M NaHCO3, pH 8.5 (coupling buffer) at a concentration of 1 mg/ml. BNHS was dissolved in dimethylformamide at a concentration of 1.7 mg/ml, and added to fibrinogen in coupling buffer at a ratio of 30 μl BNHS to 1 ml fibrinogen. The mixture was incubated with rocking for 4 h at room temperature, dialyzed against PBS, and stored in aliquots at -80° C.
Biotinylated fibrinogen (40 μl of 20 μg/ml solution) was added to each plate well. Except in control wells (which received 10 μl of 10% DMSO alone), 10 μl of each of the 11,198 crude extracts in 10% DMSO were added to duplicate wells after the addition of biotinylated fibrinogen, resulting in a 1% final assay concentration of DMSO.
FXIIIa (recombinant human FXIIIa2 (ZymoGenetics), as described in European Patent No. 0 268 772, granted Apr. 26, 1995, and incorporated herein by reference) was diluted to 100 μg/ml in a solution of 50 mM Tris, 5 mM CaCl2 at pH 7.4 containing 1 unit/ml thrombin (bovine; Enzyme Research Labs) and incubated for 20 min at 37° C. FXIIIa then was diluted to 1 μg/ml in a cross-linking buffer consisting of the blocking buffer described above plus 20 mM CaCl2 and 75 ng/ml D-phenylalanyl-L-prolyl-L-arginine chloromethyl ketone (PPACK; Calbiochem, La Jolla, Calif.). Fifty microliters of FXIIIa in cross-linking buffer was added to each test and control well. All wells then were incubated for about 10 min at 37° C.
After incubation, the wells were washed twice with 200 μl/well of wash buffer to remove all biotinylated fibrinogen that was not cross-linked to fibronectin.

[2] = tested on: plasma clots; assay: Plasma clot lysis assay; design: species or system human; conditions: 100 μM
Description: For this assay, 50 μl of one of a series of concentrations of iodoacetic acid, cerulenin, or ZG-1400a was added to 0.5 ml human citrated plasma (prepared from one blood donor) in 5 ml polypropylene tubes. The ZG-1400a and iodoacetic acid were individually prepared in 10% DMSO and tested using half-log dilutions, starting at a final assay concentration of 100 μM and diluting to 10 μM. Cerulenin was prepared in 10% ethanol and tested using half-log dilutions, starting at a final assay concentration of 100 μM and diluting to 10 μM.
Approximately 10^6 cpm ^125 I-fibrinogen (Amersham), 50 mM CaCl2 (20 mM above citrate concentration) and 5 units thrombin (bovine, Enzyme Research Labs) were added to each test and control tube. The tubes were incubated while rocking for 20 h at 37° C. Plasma clots formed in the tubes were washed three times with about 1 ml phosphate buffered saline (PBS). The plasma clots in each tube were counted after the PBS washes.
Approximately 2 ml of 50 mM Tris, pH 7.4, containing 50 mM NaCl, 28 μg plasminogen (human, Calbiochem), and 280 ng urokinase (human, Calbiochem) were added to the clots in test and control tubes. At 1, 2, and 4 h intervals, 25 μl aliquots of the samples were removed from each tube and counted.
The values shown in Table 3 represent the amount of lysis after plasma clots were formed for about 20 h and exposed to plasminogen and urokinase for about 4 h.

[3] = biological target: T2, papain (Carica papaya, UniProt P00784); assay: Papain inhibition assay; assay type: biochemical
T2 construct: purchased Boehringer Mannheim
T2 sequence (P00784 134-345): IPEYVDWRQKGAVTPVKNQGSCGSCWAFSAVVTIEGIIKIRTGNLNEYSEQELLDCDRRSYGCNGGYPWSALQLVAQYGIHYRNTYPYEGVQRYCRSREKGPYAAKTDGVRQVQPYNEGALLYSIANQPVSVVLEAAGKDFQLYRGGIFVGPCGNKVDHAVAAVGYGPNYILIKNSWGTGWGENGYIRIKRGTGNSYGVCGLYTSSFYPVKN
Description: For the papain inhibition assay, a buffer containing 0.1M NaPO4 and 2.5 mM EDTA at about pH 7.0 was used. An Azocoll™ solution was prepared by adding 5 mg Azocoll™ (Calbiochem; an insoluble, powdered cowhide to which a bright red dye is attached (azo-dye-bound collagen)) to the buffer while stirring. The Azocoll was prewarmed to about 37° C. 10 μl of 0.1M L-cysteine, 10 μl of 50 μg/ml papain (Boehringer Mannheim), 0.5 ml of Azocoll solution, and 50 μl of one of a series of concentrations of ZG-1400a, iodoacetamide, iodoacetic acid, cerulenin, or 50 μl of the DMSO or ethanol negative controls were added to duplicate 13×75 mm glass tubes. The ZG-1400a, iodoacetamide, and iodoacetic acid were individually prepared in 10% DMSO and tested using half-log dilutions, starting at a final assay concentration of 100 μM and diluting to 10 nM. Cerulenin was prepared in 10% ethanol and tested using half-log dilutions, starting at a final assay concentration of 100 μM and diluting to 10 nM. A negative (no inhibition) control for ZG-1400a, iodoacetamide and iodoacetic acid was 50 μl of 10% DMSO to give a final assay concentration of 1% DMSO in each control tube. A negative control for cerulenin was 50 μl of 10% ethanol to give a final assay concentration of 1% ethanol in each control tube. The test and control tubes then were incubated for 30 min at 37° C. in an agitated water bath.
After incubation, all of the tubes were centrifuged at 2000 RPM for 5 min. The supernatant was removed and its absorbance was read at 520 nm on a Beckman DU640 spectrophotometer to determine the amount of papain inhibition.

[4] = biological target: T3, tissue transglutaminase (tTG) (Cavia cutleri, UniProt P08587); assay: tTG screening assay; assay type: biochemical
T3 construct: purchased Sigma
T3 sequence (P08587 1-690): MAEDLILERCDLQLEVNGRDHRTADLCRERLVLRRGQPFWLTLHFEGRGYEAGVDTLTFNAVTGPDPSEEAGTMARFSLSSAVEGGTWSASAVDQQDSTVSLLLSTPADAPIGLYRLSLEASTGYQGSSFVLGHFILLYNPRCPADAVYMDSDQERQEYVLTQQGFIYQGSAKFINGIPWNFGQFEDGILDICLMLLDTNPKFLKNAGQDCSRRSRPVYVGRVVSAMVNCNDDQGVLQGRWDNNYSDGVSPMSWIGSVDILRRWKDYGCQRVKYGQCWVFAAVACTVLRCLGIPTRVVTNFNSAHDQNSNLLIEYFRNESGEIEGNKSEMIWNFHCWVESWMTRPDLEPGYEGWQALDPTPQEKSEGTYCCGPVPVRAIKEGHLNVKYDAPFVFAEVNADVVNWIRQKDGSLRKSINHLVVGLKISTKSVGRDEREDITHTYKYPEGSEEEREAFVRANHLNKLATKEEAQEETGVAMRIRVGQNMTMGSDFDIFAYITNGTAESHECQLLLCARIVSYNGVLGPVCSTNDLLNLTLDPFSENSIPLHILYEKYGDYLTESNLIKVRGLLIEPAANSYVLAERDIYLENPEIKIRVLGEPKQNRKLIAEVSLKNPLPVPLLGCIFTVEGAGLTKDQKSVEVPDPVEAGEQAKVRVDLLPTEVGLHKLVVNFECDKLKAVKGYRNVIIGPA
From the text: Because FXIII is a member of the tissue transglutaminase (tTG) family, all potential FXIIIa inhibitors identified in the primary FXIIIa screening assay were further screened for tTG (non-FXIII-specific) inhibitory activity. The tTG screening assay was identical to the primary FXIIIa screening assay, except that tTG (Sigma) was used instead of FXIIIa and no thrombin or PPACK was used.
The determination of IC50 values was done the same as in the primary FXIIIa screening assay, except that purified compounds were used at varying concentrations (instead of crude culture extracts). The IC50 values allow one to make comparisons of one compound to another.

[5] = tested on: clot formation; conditions: background; cited from earlier work

SMILES | pIC50 [1] | susceptibility of plasma clots to lysis by plasminogen and urokinase [2] | % Plasma Clot lysis ([2]; clots formed about 20 h, plasminogen and urokinase about 4 h) [%] | pIC50 [3] | Papain inhibition (result in words, IC50 table) ([3]; 100 μM to 10 nM, 30 min at 37° C.) | pIC50 [4] | internal bleeding [5] | toxicity [5]
O=C(O)CI [Iodoacetic Acid, iodoacetic acid] | 3.46 | significantly more susceptible to lysis | 23 | 6.15 | did cause inhibition | 4.49 |  | 
O=c1oc2ccccc2c(O)c1Cc1c(O)c2ccccc2oc1=O [dicoumarin] |  |  |  |  |  |  | more prone to internal bleeding | associated with toxicity
